Key:
[1] = test system: Bacillus subtilis expressing mNeongreen-FtsZ; assay: Membrane voltage disruption assay (mNeongreen-FtsZ delocalization); format: cell-based; conditions: 150 µM, 15 min, LPM 5.5
Description: We therefore monitored membrane integrity in the presence of EPM analogs by evaluating membrane voltage with mNeongreen-FtsZ ([28][–][30]). The FtsZ protein localizes to the bacterial septum based on membrane potential, and rapid delocalization of fluorescent FtsZ reporters occurs when voltage across the membrane is disrupted ([31], [32]). We monitored mNeongreen-FtsZ localization in a Gram-positive bacterium, Bacillus subtilis, to eliminate the potentially confounding issue of the passage of EPM analogs through the outer membrane at different rates ([24], [33][–][36]).
To determine whether exposure to compound dislodges FtsZ from the cell septum, an overnight culture of Bacillus subtilis grown in LPM at pH 5.5 (LPM 5.5) expressing mNeonGreen-FtsZ (strain DK5092) was exposed to DMSO, CCCP (100 µM) or an EPM analog (150 µM) for 15 or 30 min, as indicated. Bacteria were immobilized on 1% agarose pads made with LPM under a coverslip. To set the threshold value for the FtsZ septal ring, mNeonGreen signal (excitation 488 nm, emission 525 nm) from at least 20 DMSO-treated cells was quantified using a CV1000 confocal microscope with a 100× oil, NA = 1.4 objective. A background-subtracted image was made by subtracting the median intensity from full original images. A signal threshold of ≥400 arbitrary units per pixel was set (Fig. 4B). Then, we manually confirmed that mNeonGreen signal above threshold was at the center of the bacterial rod. We examined 50 cells per sample from at least three biological replicates (≥150 cells per condition). A MATLAB program (https://github.com/Betterton-Lab/FtsZ-Quantification) counted the number of pixels above threshold per cell and averaged this value across all cells for each condition and this value is reported in the graph (Fig. 4C).

E. coli AcrB = molecular target: T1, E. coli AcrB (Escherichia coli, UniProt P31224); assay: Single-particle cryo-EM of AcrB-EPM complexes in nanodiscs; conditions: "binding" protomer of the AcrB trimer; 10 µM EPM
T1 construct: 4xHis (C); made in house; host or cells: E. coli BL21-Gold (DE3), plasmid derived from pSPORT1
Description: To elucidate at high resolution how the EPM analogs interact with AcrB, we used cryo-electron microscopy (cryo-EM). We overproduced and purified the E. coli AcrB protein containing a 6×His tag at the C-terminus and reconstituted the protein into lipidic nanodiscs ([17]). We incubated the AcrB-nanodisc samples with the parent compound or with one of three structurally dissimilar EPMs analogs (CU032, CU232, CU244) to form AcrB-EPM complexes. We then solved single-particle cryo-EM structures of these complexes to resolutions between 2.63 and 2.82 Å (Table 2; Fig. 3).
AcrB was purified from E. coli BL21(DE3)ΔacrB/pSPORTΩacrB cells and reconstituted into lipidic nanodiscs. To assemble AcrB into nanodiscs, a mixture containing 10 µM AcrB, 30 µM membrane scaffold protein (1E3D1), and 900 µM E. coli total extract lipid was incubated for 15 min at room temperature. After, 0.8 mg/mL prewashed Bio-Beads (Bio-Rad) was added. The resultant mixture was incubated for 1 h on ice, followed by overnight incubation at 4°C. The protein-nanodisc solution was filtered through 0.22 µm nitrocellulose filter tubes to remove the Bio-Beads. To separate free nanodiscs from AcrB-loaded nanodiscs, the filtered protein-nanodisc solution was purified using a Superose six column (GE Healthcare) equilibrated with 20 mM Tris-HCl (pH 7.5) and 100 mM NaCl. Fractions corresponding to the size of the trimeric AcrB-nanodisc complex were collected for cryo-EM ([46]). We then incubated 0.6 mg/mL AcrB-nanodisc with 10 µM EPM for 2 h and solved structure of the AcrB-EPM complex using single-particle cryo-EM to a resolution of 2.20 Å.

RAW 264.7 macrophages = assay: SAFIRE macrophage assay: host toxicity (adherent macrophage count, morphology); format: cell-based
Outline: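 Compound or DMSO added 2 h after gentamicin-protected infection (MOI ~30, sifB::gfp SL1344) of RAW 264.7 cells and left to 18 h. Fixed cells imaged; intracellular GFP area per macrophage gives bacterial load, while retained adherent MitoTracker Red-stained macrophages define host toxicity.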

[2] = 5 uM compound, n=1, DMSO solvent control = 100
[3] = 25 uM compound, n=1, DMSO solvent control = 100

T1 sequence (P31224 whole entry): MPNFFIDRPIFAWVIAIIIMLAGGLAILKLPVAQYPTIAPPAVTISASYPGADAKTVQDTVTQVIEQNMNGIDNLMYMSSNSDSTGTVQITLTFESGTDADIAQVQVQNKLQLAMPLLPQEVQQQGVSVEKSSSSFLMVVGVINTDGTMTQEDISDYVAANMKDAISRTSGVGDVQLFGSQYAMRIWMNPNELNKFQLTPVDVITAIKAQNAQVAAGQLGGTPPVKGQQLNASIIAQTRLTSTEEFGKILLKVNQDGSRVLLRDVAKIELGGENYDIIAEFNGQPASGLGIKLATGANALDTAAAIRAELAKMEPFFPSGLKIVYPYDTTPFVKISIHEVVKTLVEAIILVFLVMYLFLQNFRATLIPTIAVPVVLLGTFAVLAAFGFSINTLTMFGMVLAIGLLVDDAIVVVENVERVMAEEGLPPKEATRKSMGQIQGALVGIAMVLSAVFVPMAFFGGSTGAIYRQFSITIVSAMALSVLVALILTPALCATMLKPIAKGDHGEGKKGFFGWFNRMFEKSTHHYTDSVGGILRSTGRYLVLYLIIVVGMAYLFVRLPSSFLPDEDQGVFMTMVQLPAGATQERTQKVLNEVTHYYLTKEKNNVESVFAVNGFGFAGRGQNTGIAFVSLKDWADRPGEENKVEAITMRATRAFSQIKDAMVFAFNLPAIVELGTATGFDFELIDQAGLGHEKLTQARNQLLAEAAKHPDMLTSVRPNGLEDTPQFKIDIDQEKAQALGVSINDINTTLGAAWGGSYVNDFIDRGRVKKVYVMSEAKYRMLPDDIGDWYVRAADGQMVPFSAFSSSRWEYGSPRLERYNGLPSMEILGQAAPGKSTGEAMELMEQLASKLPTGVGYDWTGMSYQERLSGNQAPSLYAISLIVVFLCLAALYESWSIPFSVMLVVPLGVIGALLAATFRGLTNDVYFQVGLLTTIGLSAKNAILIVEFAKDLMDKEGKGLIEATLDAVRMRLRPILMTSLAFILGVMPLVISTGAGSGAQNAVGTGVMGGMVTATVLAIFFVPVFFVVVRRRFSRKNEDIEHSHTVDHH

Row | SMILES | effect on mNeongreen-FtsZ ring size / localization [1] | binding site in AcrB (cryo-EM) (E. coli AcrB) | 5 uM Avg Cell # Score (RAW 264.7 macrophages; 5 uM) | 25 uM Avg Cell # Score (RAW 264.7 macrophages; 25 uM) | 5 uM Avg Cell # Score (RAW 264.7 macrophages; [2]) | 25 uM Avg Cell # Score (RAW 264.7 macrophages; [3]) | 5 uM Avg Cell # Score (RAW 264.7 macrophages; 5 uM, listed as CU035) | 25 uM Avg Cell # Score (RAW 264.7 macrophages; 25 uM, listed as CU035)
1 | NC1CCN(CC(O)COc2ccc(Cl)c(Cl)c2)C1 (centres unmarked) [CU032] | no significant effect | distal drug-binding pocket | 95 | 95 |  |  |  | 
2 | NC1CCN(CC(O)COc2cccc(C(F)(F)F)c2)CC1 (centres unmarked) [CU232] | no significant effect | distal drug-binding site |  |  | 124 | 113 |  | 
3 | OC(CN[C@H]1[C@@H]2CNC[C@@H]21)COc1cc(Cl)cc(Cl)c1 (some centres unmarked) [CU244] |  | distal drug-binding site |  |  | 121 | 108 |  | 
4 | OC(COc1ccc(Cl)c(Cl)c1)CN1CCC(Nc2nccc(C(F)(F)F)n2)CC1 (centres unmarked) [EPM35] | did not alter FtsZ localization | distal drug-binding pocket | 98 | 72 |  |  | 107 | 134

— paper PMC10746280, “Bacterial efflux pump modulators prevent bacterial growth in macrophages and under broth conditions that mimic the host environment” (mBio, 2023)
